{
  "source": "ChEMBL document CHEMBL2203142",
  "about": "“Biomimetic in vitro oxidation of lapachol: a model to predict and analyse the in vivo phase I metabolism of bioactive compounds” (Eur J Med Chem, 2012)",
  "design_in_all_cases": "dose 25 mg/kg",
  "key": {"Plasma [1]": {"system": "Plasma", "experiment": "Metabolic stability in Wistar rat plasma assessed as alpha-lapachone level at 25 mg/kg after 12 hrs", "assay_type": "ADME, organism-based", "settings": "in vivo"}, "Plasma [2]": {"system": "Plasma", "experiment": "Metabolic stability in Wistar rat plasma assessed as dehydro-alpha-lapachone level at 25 mg/kg after 1.5 hrs", "assay_type": "ADME, organism-based", "settings": "in vivo"}, "Plasma [3]": {"system": "Plasma", "experiment": "Metabolic stability in Wistar rat plasma assessed as alpha-lapachone level at 25 mg/kg after 1.5 hrs", "assay_type": "ADME, organism-based", "settings": "in vivo"}, "Plasma [4]": {"system": "Plasma", "experiment": "Metabolic stability in Wistar rat plasma assessed as alpha-lapachone level at 25 mg/kg after 3 hrs", "assay_type": "ADME, organism-based", "settings": "in vivo"}, "[5]": {"experiment": "Plasma concentration in Wistar rat at 25 mg/kg after 12 hrs", "assay_type": "ADME, organism-based"}, "[6]": {"experiment": "Plasma concentration in Wistar rat at 25 mg/kg after 1.5 hrs", "assay_type": "ADME, organism-based"}, "Rattus norvegicus": {"system": "Rattus norvegicus", "experiment": "Toxicity in Wistar rat at 25 mg/kg", "assay_type": "organism-based", "settings": "in vivo"}},
  "data": [
    {"compound": "CC(C)=CCC1=C(O)C(=O)c2ccccc2C1=O", "note": "[LAPACHOL]", "values": [
      {"measurement": "Drug metabolism", "setting": "Plasma [1]", "result": 0.7, "unit": "µg/mL"},
      {"measurement": "Drug metabolism", "setting": "Plasma [2]", "result": 0.6, "unit": "µg/mL"},
      {"measurement": "Drug metabolism", "setting": "Plasma [3]", "result": 1.4, "unit": "µg/mL"},
      {"measurement": "Drug metabolism", "setting": "Plasma [4]", "result": 6, "unit": "µg/mL"},
      {"measurement": "concentration at 12 h", "setting": "[5]", "result": 2000, "unit": "ng/mL"},
      {"measurement": "concentration at 1.5 h", "setting": "[6]", "result": 37000, "unit": "ng/mL"},
      {"measurement": "Activity", "setting": "Rattus norvegicus", "result": "Non-toxic"}
    ]}
  ]
}
